One block for each molecule: values may come before it. Square brackets hold non-standard residues; d marks the D form. Ends that are not written are not given here. Peptide text beside a SMILES is read from it. hArg = N=C(N)NCCCC[C@H](N)C(=O)O; Aib = CC(C)(N)C(=O)O
What was measured:
[1] = Blood Ca++ responses in mice; format: in vivo, mice (C57 BL/6); settings: 5 nmol/kg s.c., 4, 6, 8 and 24 hours
Experimental: Blood Ca^++ responses in mice were also assayed. Mice (C57 BL/6) were injected subcutaneously with either vehicle or the indicated ligand to give a final dose of 5 nmol/kg body weight, and blood was withdrawn via the tail at times after injection and assessed for Ca^++ concentration using a Bayer Rapid Lab model 348 blood analyzer. […] A similar experiment using 10 nmol/kg by intravenous injection was also conducted with similar results (FIGS. 8C and 8D).

MC3T3-E1 cells [2] = assay: cAMP RIA in intact MC3T3-E1 cells; format: cell-based, mouse; settings: 30 min, room temperature, IBMX
Experimental: cAMP stimulating activity of these polypeptides was also assessed, using two different methods: a radioimmunoassay (RIA; FIG. 2) and a cAMP responsive element fused to a luciferase gene (FIG. 3). Briefly, the RIA cAMP assays were performed in intact MC3T3-E1 cells, a mouse pre-osteoblastic cell line, in 96-well plates, as described by Okazaki et al. (Proc Natl Acad Sci USA 105:16525-30, 2008). […] The cAMP contents of the HCl lysates were then determined by RIA. Data are means of six experiments, each performed in duplicate. Curves were fit to the data using Graph-Pad Prism 4.0.

MC3T3-E1 cells [3] = assay: cAMP response following ligand wash-out in MC3T3-E1 cells; format: cell-based, mouse; settings: 100 nM ligand 5 min, then wash-out; FIGS. 7A, 7B
Experimental: Cells were treated at room temperature with vehicle or the indicated ligand (100 nM) for five minutes; for each ligand duplicate wells were used to obtain the initial (maximum cAMP values); in these wells, cells were co-incubated with ligand and IBMX. After five minutes of initial treatment, the buffer was removed, and, for the initial wells, the reactions were terminated by addition of 50 mM HCl. In the other wells, the cells were rinsed three times with buffer, and incubated in buffer for varying times, as indicated on the abscissa; after which the buffer was replaced by a buffer containing IBMX, and the cells were incubated for another five minutes. After that, the buffer was removed and the reactions were terminated by addition of 50 mM HCl. The cAMP contents of the HCl lysates were then determined by RIA.

human PTHR1 (R0) = target: T1, human PTHR1 (R0) (Homo sapiens, UniProt Q03431); assay: Competition binding, R0 conformation of human PTHR1 (COS-7 membranes, 125I-PTH(1-34) tracer, GTPγS)
T1 construct: expressed in transfected cells; host or cells: COS-7 cells (membranes)
T1 sequence (Q03431 27-593): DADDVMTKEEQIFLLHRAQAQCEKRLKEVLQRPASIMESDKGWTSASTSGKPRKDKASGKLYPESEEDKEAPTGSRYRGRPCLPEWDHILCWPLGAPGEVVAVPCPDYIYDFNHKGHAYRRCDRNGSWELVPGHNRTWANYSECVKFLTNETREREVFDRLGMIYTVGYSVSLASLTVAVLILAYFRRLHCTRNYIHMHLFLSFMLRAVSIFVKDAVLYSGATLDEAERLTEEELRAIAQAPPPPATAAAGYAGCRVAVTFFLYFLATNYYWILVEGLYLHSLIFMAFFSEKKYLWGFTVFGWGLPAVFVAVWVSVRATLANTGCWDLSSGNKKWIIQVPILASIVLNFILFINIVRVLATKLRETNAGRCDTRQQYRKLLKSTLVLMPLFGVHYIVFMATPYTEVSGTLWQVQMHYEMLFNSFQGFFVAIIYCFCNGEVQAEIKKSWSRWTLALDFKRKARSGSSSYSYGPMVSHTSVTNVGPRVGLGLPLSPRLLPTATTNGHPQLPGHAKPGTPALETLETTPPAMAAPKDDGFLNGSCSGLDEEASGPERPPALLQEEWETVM
Experimental: (§1) Briefly, the R^0 form of the receptor can be favored by addition of the non-hydrolyzable nucleotide analog GTPγS. The RG form can be favored, for example, by co-transfection of cells with a negative dominant Gαs subunit. […] Data are means of four experiments, each performed in duplicate. Curves were fit to the data using Graph-Pad Prism 4.0.
(§2) Here, competition binding assays for the R^0 and RG PTHR1 conformation were performed in membranes prepared from transfected COS-7 cells, as described by Dean et al., Mol Endocrinol 22:156-66, 2008. Data are means of three experiments, each performed in duplicate. Curves were fit to the data using Graph-Pad Prism 4.0.

rat PTHR1 (RG) = target: T2, rat PTHR1 (RG) (Rattus norvegicus, UniProt P25961); assay: Competition binding, RG conformation of rat PTHR1; settings: RG conformation; mean of 4 experiments; read-out: Binding rat PTHR1 IC50 (Log M) RG (converted)
T2 construct: expressed in transfected cells
T2 sequence (P25961 27-591): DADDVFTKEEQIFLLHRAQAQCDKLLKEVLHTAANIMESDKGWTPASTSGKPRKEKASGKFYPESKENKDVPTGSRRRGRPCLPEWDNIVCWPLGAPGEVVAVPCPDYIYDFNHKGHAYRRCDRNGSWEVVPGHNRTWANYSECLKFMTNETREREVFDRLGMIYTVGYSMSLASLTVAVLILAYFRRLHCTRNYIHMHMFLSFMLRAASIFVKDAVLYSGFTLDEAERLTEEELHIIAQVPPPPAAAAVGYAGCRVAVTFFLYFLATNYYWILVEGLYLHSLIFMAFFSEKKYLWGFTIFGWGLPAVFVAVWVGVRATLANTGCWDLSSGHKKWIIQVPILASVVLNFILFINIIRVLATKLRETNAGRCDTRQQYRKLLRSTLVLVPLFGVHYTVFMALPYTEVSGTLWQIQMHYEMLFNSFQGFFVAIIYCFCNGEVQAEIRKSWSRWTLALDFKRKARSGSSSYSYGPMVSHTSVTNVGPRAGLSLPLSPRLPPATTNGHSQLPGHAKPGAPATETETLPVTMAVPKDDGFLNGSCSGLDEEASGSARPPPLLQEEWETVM
From the text: as §1

rat PTH receptor [4] = target: T3, rat PTH receptor (rat, UniProt P25961 27-591, limits assumed); assay: radioligand displacement, rat PTHR1, RG conformation
T3 construct: R0 and RG conformations assayed separately by the method of WO 2009/017809 or a similar one; also called rat PTHR1
T3 sequence (looked up): T2 sequence (P25961 27-591)

human PTH-1 receptor [5] = target: T4, human PTH-1 receptor (human, UniProt Q03431 27-593); assay: radioligand competition, human PTHR1 in COS-7 membranes, RG conformation
T4 construct: whole, on cells; also called human PTHR1; human PTH receptor
T4 sequence (looked up): T1 sequence (Q03431 27-593)
Experimental: as §2, with “R⁰” for “R^0”

rat PTH receptor [6] = target: T3, rat PTH receptor; assay: radioligand displacement, rat PTHR1, R0 conformation
human PTH-1 receptor [7] = target: T4, human PTH-1 receptor; assay: radioligand competition, human PTHR1 in COS-7 membranes, R0 conformation
Experimental: as §2, with “R⁰” for “R^0”

EC50 (MC3T3-E1 cells [2]): 0.044 nM
cAMP MC3T3-E1 cells EC50 (Log M) (MC3T3-E1 cells [2]; 6 experiments): −10.4 ± 0.1 Log M
R0 binding at human PTH receptor as compared to PTH(1-34) (human PTHR1 (R0); FIG. 5A): enhanced R^0 binding
IC50 (human PTHR1 (R0); R0 conformation, mean of 3 experiments, read-out: Binding human PTHR1 IC50 (Log M) R0 (converted)): 1.82 nM
IC50 (rat PTHR1 (RG)): 0.38 nM
Molecule: CC[C@H](C)[C@H](NC(=O)[C@H](CCC(=O)O)NC(=O)[C@H](C)NC(=O)[C@@H](NC(=O)[C@H](Cc1c[nH]cn1)NC(=O)[C@@H](NC(=O)[C@H](CCC(=O)O)NC(=O)[C@H](C)NC(=O)[C@@H](NC(=O)[C@H](CC(C)C)NC(=O)[C@H](Cc1c[nH]cn1)NC(=O)[C@H](Cc1c[nH]cn1)NC(=O)[C@H](CC(C)C)NC(=O)[C@H](Cc1ccccc1)NC(=O)[C@H](Cc1ccccc1)NC(=O)[C@H](CCCNC(=N)N)NC(=O)[C@H](CCCNC(=N)N)NC(=O)[C@H](CCCNC(=N)N)NC(=O)[C@H](CC(C)C)NC(=O)[C@H](CC(=O)O)NC(=O)[C@H](CCC(N)=O)NC(=O)[C@@H](NC(=O)[C@H](Cc1c[nH]c2ccccc12)NC(=O)[C@H](CCCCN)NC(=O)[C@H](C)NC(=O)[C@H](CCCCNC(=N)N)NC(=O)[C@H](CCC(N)=O)NC(=O)[C@H](Cc1c[nH]cn1)NC(=O)[C@H](CCSC)NC(=O)[C@H](CC(C)C)NC(=O)[C@H](CCC(N)=O)NC(=O)[C@@H](NC(=O)[C@H](CCC(=O)O)NC(=O)C(C)(C)NC(=O)[C@@H](NC(=O)[C@H](C)N)C(C)C)[C@@H](C)CC)[C@@H](C)CC)[C@@H](C)CC)[C@@H](C)CC)[C@@H](C)O)C(N)=O [AIB-SP-PTH, [Ala^1,12,Aib^3,Gln^10,Har^11,Trp^14]PTH(1-14)/PTHrP(15-36)] (H-AV[Aib]EIQLMHQ[hArg]AKWIQDLRRRFFLHHLIAEIHTAEI-NH2; N-terminus assumed)
blood calcium levels at later time points vs PTH(1-34) or vehicle [1]: increased
cAMP MC3T3-E1 cells Emax (pmole/well) (MC3T3-E1 cells [2]): 62.1 ± 13.3 pmole/well
cAMP-stimulating activity after ligand wash-out (MC3T3-E1 cells [3]): maintained cAMP-stimulating activity for longer periods of time than PTH(1-34)

IC50 (rat PTH receptor [4]): 0.61 nM
IC50 (human PTH-1 receptor [5]): 0.48 nM
IC50 (rat PTH receptor [6]): 1.4 nM
IC50 (human PTH-1 receptor [7]): 1.4 nM
B1: SP-PTH ([Ala1,3,12,Gln10,Arg11,Trp14]PTH(1-14)/PTHrP(15-36)) (peptide)
peptide: AVAEIQLMHQRAKWIQDLRRRFFLHHLIAEIHTAEI-OH
notes: Synthetic hybrid analog of human PTH(1-14) and human PTHrP(15-36); also called Super-potent PTH; Mc-PTH(1-14)/rP(15-36)OH

Reference: US9492508B2, “Parathyroid hormone analogs and uses thereof” (The General Hospital Corporation, priority 2010, dated 2016)
